Results reported in patent US20040266732A1, “Therapeutic agents, methods, and treatments” (priority 2002, published 2004).

How the values were obtained:
Test in all cases: NCI 60 cell-line test
Assay type in all cases: cell-based, human
[1] = system: IGROV1; conditions: IGROV1 (Ovarian Cancer)
Description: (§1) Methodology: The NCI conducted a test of the MT103 drug against 60 human cell lines, with a minimum of five concentrations of MT103 at 10-fold dilutions. A 48 hour continuous drug exposure was used, and a sulforhodamine B (SRB) protein assay was used to estimate cell viability and growth. The human tumor cell lines of the cancer screening panel were grown in RPMI 1640 medium containing 5% fetal bovine serum and 2 mM L-glutamine. Cells were inoculated into 96 well microtiter plates in 100 μL at plating densities ranging from 5,000 to 40,000 cells/well depending on the doubling time of individual cell lines. After cell inoculation, the microtiter plates are incubated at 37° C., 5% CO2, 95% air, and 100% relative humidity for 24 h prior to addition of experimental drugs.
(§2) After 24 h, two plates of each cell line were fixed in situ with TCA, to represent a measurement of the cell population for each cell line at the time of drug addition (Tz). MT103 was solubilized in dimethyl sulfoxide at 400-fold the desired final maximum test concentration and stored frozen prior to use. At the time of drug addition, an aliquot of frozen concentrate was thawed and diluted to twice the desired final maximum test concentration with complete medium containing 50 μg/ml gentamicin. Additional four, 10-fold or ½ log serial dilutions were made to provide a total of five drug concentrations plus control. Aliquots of 100 μl of these different drug dilutions were added to the appropriate microtiter wells already containing 100 μl of medium, resulting in the required final drug concentrations.
(§3) Following drug addition, the plates were incubated for an additional 48 h at 37° C., 5% CO2, 95% air, and 100% relative humidity. For adherent cells, the assay was terminated by the addition of cold TCA. Cells were fixed in situ by the gentle addition of 50 μl of cold 50% (w/v) TCA (final concentration, 10% TCA) and incubated for 60 minutes at 4° C. The supernatant was discarded, and the plates were washed five times with tap water and air dried. Sulforhodamine B (SRB) solution (100 μl) at 0.4% (w/v) in 1% acetic acid was added to each well, and plates were incubated for 10 minutes at room temperature. After staining, unbound dye was removed by washing five times with 1% acetic acid and the plates were air-dried. Bound stain was subsequently solubilized with 10 mM trizma base, and the absorbance was read on an automated plate reader at a wavelength of 515 nm. For suspension cells, the methodology was the same except that the assay was terminated by fixing settled cells at the bottom of the wells by gently adding 50 μl of 80% TCA (final concentration, 16% TCA). Using the seven absorbance measurements (time zero, (Tz), control growth, (C), and test growth in the presence of drug at the five concentration levels (Ti)), the percentage growth was calculated at each of the drug concentrations levels. Percentage growth inhibition was calculated as:
(§4) [(Ti-Tz)/(C-Tz)]×100 for concentrations for which Ti>/=Tz
(§5) [(Ti-Tz)/Tz]×100 for concentrations for which Ti<Tz.
(§6) Three dose response parameters were calculated for each experimental agent. Growth inhibition of 50% (GI50) was calculated from [(Ti-Tz)/(C-Tz)]×100=50, which is the drug concentration resulting in a 50% reduction in the net protein increase (as measured by SRB staining) in control cells during the drug incubation. The drug concentration resulting in total growth inhibition (TGI) was calculated from Ti=Tz. The LC50 (concentration of drug resulting in a 50% reduction in the measured protein at the end of the drug treatment as compared to that at the beginning) indicating a net loss of cells following treatment was calculated from [(Ti-Tz)/Tz]×100=−50. Values were calculated for each of these three parameters if the level of activity is reached; however, if the effect was not reached or was exceeded, the value for that parameter was expressed as greater or less than the maximum or minimum concentration tested.

[2] = system: MDA-N; conditions: MDA-N (Breast Cancer)
Description: as §1, §2, §3, §4, §5, §6

[3] = system: NCI-H23; conditions: NCI-H23 (Non-Small Cell Lung Cancer)
Description: as §1, §2, §3, §4, §5, §6

[4] = system: SW-620; conditions: SW-620 (Colon Cancer)
Description: as §1, §2, §3, §4, §5, §6

[5] = system: OVCAR-5; conditions: OVCAR-5 (Ovarian Cancer)
Description: as §1, §2, §3, §4, §5, §6

[6] = system: UACC-62; conditions: UACC-62 (Melanoma)
Description: as §1, §2, §3, §4, §5, §6

[7] = system: K-562; conditions: K-562 (Leukemia)
Description: as §1, §2, §3, §4, §5, §6

[8] = system: SK-MEL-28; conditions: SK-MEL-28 (Melanoma)
Description: as §1, §2, §3, §4, §5, §6

[9] = system: OVCAR-8; conditions: OVCAR-8 (Ovarian Cancer)
Description: as §1, §2, §3, §4, §5, §6

[10] = system: U251; conditions: U251 (CNS Cancer)
Description: as §1, §2, §3, §4, §5, §6

[11] = system: SNB-19; conditions: SNB-19 (CNS Cancer)
Description: as §1, §2, §3, §4, §5, §6

[12] = system: COLO 205; conditions: COLO 205 (Colon Cancer)
Description: as §1, §2, §3, §4, §5, §6

[13] = system: MDA-MB-435; conditions: MDA-MB-435 (Breast Cancer)
Description: as §1, §2, §3, §4, §5, §6

[14] = system: HT29; conditions: HT29 (Colon Cancer)
Description: as §1, §2, §3, §4, §5, §6

[15] = system: MCF7; conditions: MCF7 (Breast Cancer)
Description: as §1, §2, §3, §4, §5, §6

[16] = read-out: LC50 (the source's name)

## CC1(C)C2CC[C@@]1(CS(=O)(=O)N(C1CCCCC1)C1CCCCC1)C(O)C2 (some centres unmarked) [MT103]
[1]
  TGI: >1.00E−04
[1]; read-out: G150
  IC50: 34.8 µM
[1]; [16]
  CC50: > 100 µM
[2]
  TGI: >1.00E−04
[2]; read-out: G150
  IC50: 27.1 µM
[2]; [16]
  CC50: > 100 µM
[3]; read-out: G150
  IC50: 26.9 µM
[3]; [16]
  CC50: > 100 µM
[4]
  TGI: >1.00E−04
[4]; read-out: G150
  IC50: 28.8 µM
[4]; [16]
  CC50: > 100 µM
[5]
  TGI: 5.70E−05
[5]; read-out: G150
  IC50: 23.7 µM
[5]; [16]
  CC50: > 100 µM
[6]
  TGI: 4.65E−05
[6]; read-out: G150
  IC50: 18.8 µM
[6]; [16]
  CC50: > 100 µM
[7]
  TGI: >1.00E−04
[7]; read-out: G150
  IC50: 26.8 µM
[7]; [16]
  CC50: > 100 µM
[8]
  TGI: >1.00E−04
[8]; read-out: G150
  IC50: 50.7 µM
[8]; [16]
  CC50: > 100 µM
[9]
  TGI: >1.00E−04
[9]; read-out: G150
  IC50: 25.3 µM
[9]; [16]
  CC50: > 100 µM
[10]
  TGI: >1.00E−04
[10]; read-out: G150
  IC50: 28.7 µM
[10]; [16]
  CC50: > 100 µM
[11]
  TGI: >1.00E−04
[11]; read-out: G150
  IC50: 68 µM
[11]; [16]
  CC50: > 100 µM
[12]
  TGI: 4.98E−05
[12]; read-out: G150
  IC50: 21.3 µM
[12]; [16]
  CC50: > 100 µM
[13]
  TGI: 9.88E−05
[13]; read-out: G150
  IC50: 28.4 µM
[13]; [16]
  CC50: > 100 µM
[14]
  TGI: >1.00E−04
[14]; read-out: G150
  IC50: 23.5 µM
[14]; [16]
  CC50: > 100 µM
[15]
  TGI: 9.05E−05
[15]; read-out: G150
  IC50: 20.6 µM
[15]; [16]
  CC50: > 100 µM
